Consider one compound from article PMC10890321, “Identification of Mortalin as the Main Interactor of Mycalin A, a Poly-Brominated C-15 Acetogenin Sponge Metabolite, by MS-Based Proteomics” (Marine Drugs, 2024).

The test concerns the target T1, mortalin (GRP75, mitochondrial Stress-70 protein) (Homo sapiens, UniProt P38646).
T1 construct: gene HSPA9
Kind of test: SPR competition (mortalin pre-incubated with MKT-077, injected over immobilized p53). Format: binding.

T1 sequence (P38646 47-679): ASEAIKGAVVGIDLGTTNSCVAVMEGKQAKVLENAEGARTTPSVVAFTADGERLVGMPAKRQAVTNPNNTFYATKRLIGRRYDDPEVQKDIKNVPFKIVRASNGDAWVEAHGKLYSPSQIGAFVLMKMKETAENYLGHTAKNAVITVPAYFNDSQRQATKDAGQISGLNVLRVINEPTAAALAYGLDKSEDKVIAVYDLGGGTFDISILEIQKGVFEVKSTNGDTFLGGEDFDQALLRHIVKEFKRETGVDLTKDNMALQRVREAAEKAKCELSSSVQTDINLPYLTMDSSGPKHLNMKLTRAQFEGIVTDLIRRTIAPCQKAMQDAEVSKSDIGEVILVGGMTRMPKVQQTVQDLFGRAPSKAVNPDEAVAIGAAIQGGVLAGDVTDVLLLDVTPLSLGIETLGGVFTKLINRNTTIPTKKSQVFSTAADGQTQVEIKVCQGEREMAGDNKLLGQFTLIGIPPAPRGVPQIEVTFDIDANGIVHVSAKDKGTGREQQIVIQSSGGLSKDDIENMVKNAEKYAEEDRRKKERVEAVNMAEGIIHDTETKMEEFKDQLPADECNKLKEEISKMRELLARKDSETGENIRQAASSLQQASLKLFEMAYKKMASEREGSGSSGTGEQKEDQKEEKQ
T1 sequence (P04637 whole entry partner): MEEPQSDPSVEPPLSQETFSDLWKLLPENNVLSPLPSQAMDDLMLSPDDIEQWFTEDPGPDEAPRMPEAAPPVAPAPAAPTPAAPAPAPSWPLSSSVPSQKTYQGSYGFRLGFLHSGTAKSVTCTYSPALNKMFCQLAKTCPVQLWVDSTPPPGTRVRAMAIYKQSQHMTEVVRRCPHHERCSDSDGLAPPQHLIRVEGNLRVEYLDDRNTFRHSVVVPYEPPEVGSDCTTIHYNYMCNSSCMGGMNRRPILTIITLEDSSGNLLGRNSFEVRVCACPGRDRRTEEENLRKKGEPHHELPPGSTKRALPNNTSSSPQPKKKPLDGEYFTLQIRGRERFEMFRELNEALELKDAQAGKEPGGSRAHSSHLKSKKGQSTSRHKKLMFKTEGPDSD

As to `CCn1c(=O)/c(=C2\Sc3ccccc3N2C)s/c1=C\c1cccc[n+]1CC` [MKT-077], the “SPR competition (mortalin pre-incubated with MKT-077, injected over immobilized)” value amounted to 843.4 nM.
